Among the data in patent US20190142810A1, “MITOCHONDRIAL INHIBITORS FOR THE TREATMENT OF PROLIFERATION DISORDERS” (Basilea Pharmaceutica International AG, priority 2016, published 2019) are IC50 values, retold here.

The IC50 is the point on the concentration scale where inhibition reaches its midpoint.

The subject of experiment [1] is Oxygen consumption (mitochondrial function). As to the kind of experiment: Oxygen consumption assay (MitoXpress probe). The experiment is classed as cell-based. As to conditions: 5 h, MitoXpress probe signal, kinetic analysis at 37° C. for 5 hours, compared to untreated cells. An excerpt:
Oxygen consumption is one of the most informative and direct measures of mitochondrial function and can be measured, for example, by using the MitoXpress® assay (Luxcel MX-2001, Luxcel Biosciences). The MitoXpress® probe is one of a family of phosphorescent oxygen sensitive probes. The assay exploits the ability of oxygen to quench the excited state of the MitoXpress® probe. As the test material respires (i.e. the cells), oxygen is depleted in the surrounding solution/environment, which increases the probe phosphorescence signal. Changes in oxygen consumption reflecting changes in mitochondrial activity are seen as changes in the MitoXpress® probe signal over time.
Cells were seeded in 96 well black plates with transparent bottoms (Greiner Bio-One cat. no. 655090) at a density of 50′000 cells/well in a final volume of 100 μL. After 24 hours the incubation media was removed and 150 μL of fresh media containing inhibitors at different concentrations was added to each well. Then, 10 μL of MitoXpress® and 150 μL mineral oil were added per well. Reading from the top of the plate, kinetic analysis was performed at 37° C. for 5 hours using a Synergy 4 plate reader (BioTek) and Time-resolved Fluoresence (TRF) wavelengths of 380/11 nm excitation and 650/20 nm emission or 665/40 emission (30 microsecond delay time, 100 microsecond integration time, gain or sensitivity settings set at either medium or high). IC50s were calculated as the concentration that inhibits 50% of the phosphorescent oxygen sensitive probe signal (MitoXpress®) as compared to untreated cells.

Experiment [2] deals with HeLa galactose cells. As to the kind of experiment: Cell growth and proliferation assay of HeLa galactose cells (crystal violet). The experiment is classed as cell-based. Conditions: Homo sapiens, HeLa, 72 h, 72 hours incubation, crystal violet staining, absorbance at 590 nm. The method, boiled down:
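HeLa cells adapted stepwise over three weeks to glucose-free galactose medium plus 10 mM galactose, seeded at 2000 cells/well and treated 72 h with compounds (0.001% DMSO) at 37° C. Growth read by crystal violet staining, dye solubilized and absorbance at 590 nm; IC50 from concentration-response curves.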

As for `COCc1ccc(C=C2CCN(C(=O)Nc3nc(C)ns3)CC2)c(F)c1` [Example 93, 4-[[2-fluoro-4-(methoxymethyl)phenyl]methylene]-N-(3-methyl-1,2,4-thiadiazol-5-yl)piperidine-1-carboxamide], the IC50 in experiment [1] came to 63 nM; in experiment [2], 56 nM.

Regarding `Cc1nsc(NC(=O)N2CCC(=Cc3c(F)cc(N(C)CC#N)cc3F)CC2)n1` [Example 164, 4-[[4-[cyanomethyl(methyl)amino]-2,6-difluoro-phenyl]methylene]-N-(3-methyl-1,2,4-thiadiazol-5-yl)piperidine-1-carboxamide], the IC50 in experiment [1] was 16 nM; in experiment [2], 19 nM.

On to `Cc1nsc(NC(=O)N2CCCC(Cc3c(F)cc(N(C)C)cc3F)CC2)n1` (stereo not shown) [Example 121, 4-[[4-(dimethylamino)-2,6-difluoro-phenyl]methyl]-N-(3-methyl-1,2,4-thiadiazol-5-yl)azepane-1-carboxamide], for which the IC50 in experiment [1] was determined as 54 nM; in experiment [2], 20 nM.

For the molecule `Cc1cc(NC(=O)N2CCC(Cc3c(F)cc(C(F)(F)F)cc3F)CC2)ccn1` [Example 139], the IC50 in experiment [1] is 152 nM; in experiment [2] it was 22 nM.

Consider `Cc1nsc(NC(=O)N2CCC/C(=C/c3ccc(Cl)cc3F)CC2)n1` [Example 118, (4Z)-4-[(4-chloro-2-fluoro-phenyl)methylene]-N-(3-methyl-1,2,4-thiadiazol-5-yl)azepane-1-carboxamide], for which the values for the IC50 in experiment [1] and in experiment [2] were 70 nM and 43 nM, respectively.

As for `CCc1cc(NC(=O)N2CCC(=Cc3c(F)cc(C#N)cc3F)CC2)ccn1` [Example 179, 4-[(4-cyano-2,6-difluoro-phenyl)methylene]-N-(2-ethyl-4-pyridyl)piperidine-1-carboxamide], the IC50 in experiment [1] came to 41 nM; in experiment [2], 11 nM.

As for `Cc1nsc(NC(=O)N2CCC(=Cc3ccc(Cl)cc3Cl)CC2)n1` [Example 21], the IC50 in experiment [1] worked out at 208 nM; in experiment [2], 207 nM.

As to `N#Cc1cc(F)c(C=C2CCN(C(=O)Nc3ccnc(C4CC4)c3)CC2)c(F)c1` [Example 182, 4-[(4-cyano-2,6-difluoro-phenyl)methylene]-N-(2-cyclopropyl-4-pyridyl)piperidine-1-carboxamide], the IC50 in experiment [1] came to 108 nM; in experiment [2] it was 13 nM.

For `CCc1cc(NC(=O)N2CCC(=Cc3ccc(Cl)cc3F)CC2)ccn1` [Example 144, 4-[(4-chloro-2-fluoro-phenyl)methylene]-N-(2-ethyl-4-pyridyl)piperidine-1-carboxamide], the IC50 in experiment [1] stood at 53 nM; in experiment [2], 8 nM.

Consider `Cc1nsc(NC(=O)N2CC/C(=C\c3ccc(Cl)cc3F)CC2C)n1` (stereo not shown) [Example 86, (4E)-4-[(4-chloro-2-fluoro-phenyl)methylene]-2-methyl-N-(3-methyl-1,2,4-thiadiazol-5-yl)piperidine-1-carboxamide], for which the 50% inhibitory concentration (IC50) in experiment [1] came out at 61 nM; in experiment [2] it was 21 nM.

On to `Cc1nsc(NC(=O)N2CCC(Oc3ccc(OC(F)(F)F)cc3)CC2)n1` [Example 56], for which the values for the IC50 in experiment [1] and in experiment [2] were 1250 nM and 736 nM, respectively.

For `Cc1nsc(NC(=O)N2CCCN(Cc3ccc(Cl)cc3F)CC2)n1` [Example 51], the half-maximal inhibitory concentration (IC50) in experiment [1] came to 182 nM; in experiment [2], 67 nM.

Consider `COc1ccc(C(=O)C2CCN(C(=O)Nc3nc(C)ns3)CC2)c(F)c1` [Example 140, 4-(2-fluoro-4-methoxy-benzoyl)-N-(3-methyl-1,2,4-thiadiazol-5-yl)piperidine-1-carboxamide], for which the IC50 was 94 nM in experiment [1] and 43 nM in experiment [2].

With `Cc1ccc(SC2CCN(C(=O)Nc3nc(C)ns3)CC2)cc1` [Example 7, N-(3-methyl-1,2,4-thiadiazol-5-yl)-4-(p-tolylsulfanyl)piperidine-1-carboxamide], the results for the IC50 in experiment [1] and in experiment [2] were 500 nM and 142 nM, respectively.

Take `Cc1nsc(NC(=O)N2CCC(Cc3ccc(F)cc3)CC2)n1` [Example 1, 1-Piperidinecarboxamide, 4-[(4-fluorophenyl)methyl]-N-(3-methyl-1,2,4-thiadiazol-5-yl)-]: the half-maximal inhibitory concentration (IC50) stood at 193 nM in experiment [1] and 161 nM in experiment [2].

With `Cc1nsc(NC(=O)N2CCC(Cc3ccc(N)cc3)CC2)n1` [Example 4, 4-[(4-aminophenyl)methyl]-N-(3-methyl-1,2,4-thiadiazol-5-yl)piperidine-1-carboxamide], the IC50 in experiment [1] came out at 400 nM; in experiment [2], 460 nM.

Regarding `Cc1cc(NC(=O)N2CCC(=Cc3c(F)cc(N(C)C)cc3F)CC2)ccn1` [Example 154], the IC50 came to 192 nM in experiment [1] and 37 nM in experiment [2].

In the case of `Cc1nsc(NC(=O)N2CCC(=Cc3ccc(C(F)(F)F)cc3F)CC2)n1` [Example 38], the IC50 in experiment [1] stood at 131 nM; in experiment [2], 61 nM.

For the molecule `Cc1nsc(NC(=O)N2CCC(Cc3ccc(C(C)C)cc3)CC2)n1` [Example 16], the results for the IC50 in experiment [1] and in experiment [2] were 326 nM and 260 nM, respectively.

For `COCCN(C)c1cc(F)c(C=C2CCN(C(=O)Nc3nc(C)ns3)CC2)c(F)c1` [Example 146, 4-[[2,6-difluoro-4-[2-methoxyethyl(methyl)amino]phenyl]methylene]-N-(3-methyl-1,2,4-thiadiazol-5-yl)piperidine-1-carboxamide], the figures for the IC50 in experiment [1] and in experiment [2] were 20 nM and 13 nM, respectively.

On to `Cc1nsc(NC(=O)N2CC/C(=C/c3ccc(Cl)cc3F)C(C)C2)n1` (stereo not shown) [Example 83, (4Z)-4-[(4-chloro-2-fluoro-phenyl)methylene]-3-methyl-N-(3-methyl-1,2,4-thiadiazol-5-yl)piperidine-1-carboxamide], for which the values for the IC50 in experiment [1] and in experiment [2] were 329 nM and 115 nM, respectively.

`Cc1nsc(NC(=O)N2CCC(=Cc3ccc(N(C)C)cc3F)CC2)n1` [Example 47, 4-[[4-(dimethylamino)-2-fluoro-phenyl]methylene]-N-(3-methyl-1,2,4-thiadiazol-5-yl)piperidine-1-carboxamide]: the half-maximal inhibitory concentration (IC50) in experiment [1] turned out to be 67 nM; in experiment [2], 25 nM.

On to `Cc1nsc(NC(=O)N2CCC(Cc3ccc(Cl)cc3Cl)CC2)n1` [Example 8], for which the IC50 worked out at 200 nM in experiment [1] and 32 nM in experiment [2].

`Cc1nsc(NC(=O)N2CCC(=Cc3ccc(F)cc3F)CC2)n1` [Example 59, 4-[(2,4-difluorophenyl)methylene]-N-(3-methyl-1,2,4-thiadiazol-5-yl)piperidine-1-carboxamide]: the IC50 worked out at 43 nM in experiment [1] and 41 nM in experiment [2].

For `Cc1ccc(CC2CCN(C(=O)Nc3nc(C)ns3)CC2)c(F)c1` [Example 27, 4-[(2-fluoro-4-methyl-phenyl)methyl]-N-(3-methyl-1,2,4-thiadiazol-5-yl)piperidine-1-carboxamide], the IC50 in experiment [1] was found to be 83 nM; in experiment [2] it was 59 nM.

On to `CCc1nsc(NC(=O)N2CCC(Cc3c(F)cc(N(C)C)cc3F)CC2)n1` [Example 152, 4-[[4-(dimethylamino)-2,6-difluoro-phenyl]methyl]-N-(3-ethyl-1,2,4-thiadiazol-5-yl)piperidine-1-carboxamide], for which the IC50 was determined as 39 nM in experiment [1] and 19 nM in experiment [2].

Turning to `COc1cc(F)c(CC2CCN(C(=O)Nc3nc(C)ns3)CC2)c(F)c1` [Example 98, 4-[(2,6-difluoro-4-methoxy-phenyl)methyl]-N-(3-methyl-1,2,4-thiadiazol-5-yl)piperidine-1-carboxamide], the IC50 in experiment [1] stood at 76 nM; in experiment [2], 39 nM.

On to `COc1cc(F)c(CC2CCN(C(=O)Nc3nc(C)ns3)CC2)cn1` [Example 68], for which the results for the IC50 in experiment [1] and in experiment [2] were 179 nM and 100 nM, respectively.

On to `Cc1nsc(NC(=O)N2CCC(Cc3ncc(Cl)cc3F)CC2)n1` [Example 62], for which the values for the IC50 in experiment [1] and in experiment [2] were 122 nM and 57 nM, respectively.

For the molecule `Cc1ccc(OC2CCN(C(=O)Nc3nc(C)ns3)CC2)cc1` [Example 18], the IC50 in experiment [1] stood at 515 nM; in experiment [2], 637 nM.

In the case of `COc1cc(CC2CCN(C(=O)Nc3nc(C)ns3)CC2)c(F)cc1Cl` [Example 65], the IC50 came out at 126 nM in experiment [1] and 50 nM in experiment [2].

Turning to `Cc1nsc(NC(=O)N2CCC(Oc3ccc(Cl)cc3)CC2)n1` [Example 19, 4-(4-chlorophenoxy)-N-(3-methyl-1,2,4-thiadiazol-5-yl)piperidine-1-carboxamide], the IC50 was found to be 488 nM in experiment [1] and 266 nM in experiment [2].

Regarding `Cc1nsc(NC(=O)N2CCC(Cc3ccc(C)c(F)c3)CC2)n1` [Example 29], the IC50 in experiment [1] came to 205 nM; in experiment [2], 256 nM.

With `COCc1cc(NC(=O)N2CCC(=Cc3ccc(Cl)cc3F)CC2)ccn1` [Example 176], the results for the IC50 in experiment [1] and in experiment [2] were 133 nM and 54 nM, respectively.

In the case of `Cc1nsc(NC(=O)N2CC/C(=C\c3ccc(Cl)cc3F)C(C)(C)C2)n1` [Example 85, (4E)-4-[(4-chloro-2-fluoro-phenyl)methylene]-3,3-dimethyl-N-(3-methyl-1,2,4-thiadiazol-5-yl)piperidine-1-carboxamide], the values for the IC50 in experiment [1] and in experiment [2] were 83 nM and 38 nM, respectively.
